This passage reports IC50 results from US20080119515A1, “Heterocyclic Kinase Inhibitors: Methods of Use and Synthesis” (priority 2003, published 2008).

The test has as its target T1, ZAP-70 (Homo sapiens, UniProt P43403).
T1 sequence (P43403 1-619): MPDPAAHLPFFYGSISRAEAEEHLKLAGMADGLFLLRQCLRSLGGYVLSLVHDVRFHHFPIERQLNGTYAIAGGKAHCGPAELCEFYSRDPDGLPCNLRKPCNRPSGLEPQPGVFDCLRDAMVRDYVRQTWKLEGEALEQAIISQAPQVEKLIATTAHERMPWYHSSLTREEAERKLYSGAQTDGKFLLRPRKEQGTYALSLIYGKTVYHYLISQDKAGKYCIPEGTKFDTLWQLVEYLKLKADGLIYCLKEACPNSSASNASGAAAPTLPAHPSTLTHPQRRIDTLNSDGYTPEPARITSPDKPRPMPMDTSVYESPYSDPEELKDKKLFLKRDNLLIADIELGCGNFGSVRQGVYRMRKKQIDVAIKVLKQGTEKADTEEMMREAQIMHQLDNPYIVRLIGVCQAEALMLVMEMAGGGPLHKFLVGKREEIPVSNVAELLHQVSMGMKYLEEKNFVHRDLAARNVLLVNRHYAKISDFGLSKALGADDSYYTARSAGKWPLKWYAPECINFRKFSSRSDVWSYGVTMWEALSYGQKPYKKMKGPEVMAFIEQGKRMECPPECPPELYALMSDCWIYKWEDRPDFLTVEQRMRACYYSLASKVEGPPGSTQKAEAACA
As to the kind of experiment: DELFIA assay (ZAP-70 kinase, phosphorylation of biotinylated poly(glu,tyr)). In kind it is biochemical. The settings on record: ZAP-70 DELFIA, class symbols; read-out: Activity (IC50 in vitro). An outline of the steps: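 3.1 nM ZAP-70 pre-incubated 10 min at room temperature with compound ([…]) and 62.5 nM biotinylated poly(glu,tyr) in 62.5 mM Mops pH 7.0, 12.5 mM MgCl2, 12.5% glycerol, 6.25% DMSO (pre-incubation concentrations); ATP added from 5 mM stock, 30 min reaction, EDTA stop. Phosphorylation read by DELFIA europium anti-phosphotyrosine fluorescence (340/615).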
With `O=C(c1cc(NCc2ccc(C(F)(F)F)cc2)nc2ccc(-c3ccc4c(c3)OCO4)cc12)N1CCC[C@H]1CO` [Compound 362], the IC50 is greater than 10 µM.

Regarding `CN(Cc1ccccc1)c1cc(C(=O)N2CCC[C@H]2CN2CCCC2)cc(N(C)c2ccccc2)n1` [Compound 363], the IC50 lay within 1 to 10 µM.

In the case of `CN(CCc1ccccc1)c1cc(C(=O)N2CCC[C@H]2CN2CCCC2)cc(N(C)Cc2ccccc2)n1` [Compound 364], the IC50 was in the range of 1 to 10 µM.

Consider `CN(CCc1ccccc1)c1cc(C(=O)N2CCC[C@H]2CN2CCCC2)cc(/C=C/c2ccccc2)n1` [Compound 365], for which the IC50 is 1 to 10 µM.

`CN(CCc1ccccc1)c1cc(C(=O)N2CCC[C@H]2CN2CCCC2)cc(/C=C/c2ccc(C(F)(F)F)cc2)n1` [Compound 366]: the IC50 is 1 to 10 µM.

For the compound `CN(CCc1ccccc1)c1cc(C(=O)N2CCC[C@H]2CN2CCCC2)cc(-c2ccccc2)n1` [Compound 367], the half-inhibitory concentration (IC50) was greater than 10 µM.

`CN(CCc1ccccc1)c1cc(C(=O)N2CCC[C@H]2CN2CCCC2)cc(-c2ccc3c(c2)OCO3)n1` [Compound 368]: the IC50 is greater than 10 µM.

As to `CN(CCc1ccccc1)c1cc(C(=O)N2CCC[C@H]2CN2CCCC2)cc(Cc2ccccc2)n1` [Compound 369], the IC50 is greater than 10 µM.

For the compound `CN(CCc1ccccc1)c1cc(C(=O)N2CCC[C@H]2CN2CCCC2)cc(N2CCOCC2)n1` [Compound 370], the IC50 was greater than 10 µM.

With `CN(CCc1ccccc1)c1cc(C(=O)N2CCC[C@H]2CN2CCCC2)cc(N(C)c2ccccc2)n1` [Compound 371], the IC50 was greater than 10 µM.

With `CN(CCc1ccccc1)c1cc(C(=O)N2CCC[C@H]2CN2CCCC2)cc(N(C)CCc2ccccc2)n1` [Compound 372], the IC50 fell in the range of 1 to 10 µM.

For the compound `FC(F)(F)c1ccc(CNc2cc(C(=S)N3CCC[C@H]3CN3CCCC3)c3cc(-c4ccc5c(c4)OCO5)ccc3n2)cc1` [Compound 373], the half-inhibitory concentration (IC50) was in the range of 1 to 10 µM.

With `O=C(c1cc(NCc2ccc(Cl)cc2)nc2ccc(-c3ccc4c(c3)OCO4)cc12)N1CC[C@H]1CN1CCCC1` [Compound 374], the 50% inhibitory concentration (IC50) was 1 to 10 µM.

Consider `O=C(c1cc(NCc2ccc(C(F)(F)F)cc2)nc2ccc(-c3ccc4c(c3)OCO4)cc12)N1CCCC[C@H]1CN1CCCC1` [Compound 375], for which the IC50 is 1 to 10 µM.

In the case of `O=C(c1cc(NCc2ccc(Cl)cc2)nc2ccc(-c3ccc4c(c3)OCO4)cc12)N1CCCC[C@H]1CN1CCCC1` [Compound 376], the IC50 fell in the range of 1 to 10 µM.

As for `N=C(NC1CC1)[C@@H]1CCCN1C(=O)c1cc(NCc2ccc(C(F)(F)F)cc2)nc2ccc(-c3ccc4c(c3)OCO4)cc12` [Compound 377], the IC50 was greater than 10 µM.

In the case of `N=C(NC1CCC1)[C@@H]1CCCN1C(=O)c1cc(NCc2ccc(C(F)(F)F)cc2)nc2ccc(-c3ccc4c(c3)OCO4)cc12` [Compound 378], the IC50 was greater than 10 µM.

With `N=C(NC1CCCC1)[C@@H]1CCCN1C(=O)c1cc(NCc2ccc(C(F)(F)F)cc2)nc2ccc(-c3ccc4c(c3)OCO4)cc12` [Compound 379], the IC50 was greater than 10 µM.

As to `N=C(NC1CCCCC1)[C@@H]1CCCN1C(=O)c1cc(NCc2ccc(C(F)(F)F)cc2)nc2ccc(-c3ccc4c(c3)OCO4)cc12` [Compound 380], the IC50 was greater than 10 µM.

Turning to `N=C([C@@H]1CCCN1C(=O)c1cc(NCc2ccc(C(F)(F)F)cc2)nc2ccc(-c3ccc4c(c3)OCO4)cc12)N1CCCC1` [Compound 381], the half-maximal inhibitory concentration (IC50) was greater than 10 µM.

For the compound `N#C[C@@H]1CCCN1C(=O)c1cc(NCc2ccc(C(F)(F)F)cc2)nc2ccc(-c3ccc4c(c3)OCO4)cc12` [Compound 382], the IC50 was greater than 10 µM.

On to `O=C(c1cc(NCc2ccc(C(F)(F)F)cc2)nc2c(-c3ccc4c(c3)OCO4)cc(Cl)cc12)N1CCC[C@H]1CN1CCCC1` [Compound 383], for which the IC50 was greater than 10 µM.

In the case of `O=C(c1cc(NCc2ccc(C(F)(F)F)cc2)nc2c(Cl)cc(-c3ccc4c(c3)OCO4)cc12)N1CCC[C@H]1CN1CCCC1` [Compound 384], the 50% inhibitory concentration (IC50) was less than 1 µM.

Regarding `O=C(Nc1cc(C(=O)N2CCC[C@H]2CN2CCCC2)c2cc(-c3ccc4c(c3)OCO4)ccc2n1)c1ccccc1` [Compound 385], the IC50 lay in the range of 1 to 10 µM.

As to `O=C(Nc1cc(C(=O)N2CCC[C@H]2CN2CCCC2)c2cc(-c3ccc4c(c3)OCO4)ccc2n1)c1ccc(Cl)cc1` [Compound 386], the IC50 was 1 to 10 µM.

For the compound `N#Cc1ccc(-c2ccc3nc(/C=C/c4ccc(Cl)cc4)cc(C(=O)N4CCC[C@H]4CN4CCCC4)c3c2)cc1` [Compound 387], the half-inhibitory concentration (IC50) was 1 to 10 µM.

Regarding `N#Cc1ccc(-c2ccc3nc(CCc4ccc(F)cc4)cc(C(=O)N4CCC[C@H]4CN4CCCC4)c3c2)cc1` [Compound 388], the IC50 lay in the range of 1 to 10 µM.

On to `N#Cc1ccc(-c2ccc3nc(CCc4ccc(C(F)(F)F)cc4)cc(C(=O)N4CCC[C@H]4CN4CCCC4)c3c2)cc1` [Compound 389], for which the IC50 is less than 1 µM.

As for `N#Cc1ccc(-c2ccc3nc(CCc4ccc(Cl)cc4)cc(C(=O)N4CCC[C@H]4CN4CCCC4)c3c2)cc1` [Compound 390], the IC50 is greater than 10 µM.

With `N#Cc1ccc(-c2ccc3nc(CCc4ccccc4)cc(C(=O)N4CCC[C@H]4CN4CCCC4)c3c2)cc1` [Compound 391], the IC50 is greater than 10 µM.

Take `Cc1ccc(CCc2cc(C(=O)N3CCC[C@H]3CN3CCCC3)c3cc(-c4ccc5c(c4)OCO5)ccc3n2)cc1` [Compound 392]: the half-maximal inhibitory concentration (IC50) is less than 1 µM.

In the case of `O=C(c1cc(CCc2ccc(-c3ccccc3)cc2)nc2ccc(-c3ccc4c(c3)OCO4)cc12)N1CCC[C@H]1CN1CCCC1` [Compound 393], the IC50 is less than 1 µM.

Regarding `Nc1ccc(CCc2cc(C(=O)N3CCC[C@H]3CN3CCCC3)c3cc(-c4ccc5c(c4)OCO5)ccc3n2)cc1` [Compound 394], the IC50 is greater than 10 µM.

Take `O=C(c1cc(CCc2ccccc2F)nc2ccc(-c3ccc4c(c3)OCO4)cc12)N1CCC[C@H]1CN1CCCC1` [Compound 395]: the IC50 was less than 1 µM.

Regarding `O=C(c1cc(CCc2cccc(F)c2)nc2ccc(-c3ccc4c(c3)OCO4)cc12)N1CCC[C@H]1CN1CCCC1` [Compound 396], the IC50 is less than 1 µM.

Take `O=C(c1cc(CCc2ccc(F)cc2F)nc2ccc(-c3ccc4c(c3)OCO4)cc12)N1CCC[C@H]1CN1CCCC1` [Compound 397]: the IC50 is less than 1 µM.

On to `CCCCCc1ccc(CCc2cc(C(=O)N3CCC[C@H]3CN3CCCC3)c3cc(-c4ccc5c(c4)OCO5)ccc3n2)cc1` [Compound 398], for which the IC50 was less than 1 µM.

With `O=C(c1ccnc2ccc(-c3ccc4c(c3)OCO4)cc12)N1CCC[C@H]1CN1CCCC1` [Compound 399], the IC50 is greater than 10 µM.

For the compound `O=C(c1cc(Cc2ccc(Cl)cc2)nc2ccc(-c3ccc4c(c3)OCO4)cc12)N1CCC[C@H]1CN1CCCC1` [Compound 400], the IC50 was less than 1 µM.

For `O=C(c1cc(Cc2ccc(Cl)cc2Cl)nc2ccc(-c3ccc4c(c3)OCO4)cc12)N1CCC[C@H]1CN1CCCC1` [Compound 401], the half-inhibitory concentration (IC50) is less than 1 µM.

As to `C[Si](C)(C)C#Cc1cc(C(=O)N2CCC[C@H]2CN2CCCC2)c2cc(-c3ccc4c(c3)OCO4)ccc2n1` [Compound 402], the IC50 is less than 1 µM.

In the case of `COc1ccc(C#Cc2cc(C(=O)N3CCC[C@H]3CN3CCCC3)c3cc(-c4ccc5c(c4)OCO5)ccc3n2)cc1` [Compound 403], the half-inhibitory concentration (IC50) is less than 1 µM.

On to `O=C(c1cc(C#Cc2cccc(C(F)(F)F)c2)nc2ccc(-c3ccc4c(c3)OCO4)cc12)N1CCC[C@H]1CN1CCCC1` [Compound 404], for which the half-maximal inhibitory concentration (IC50) was less than 1 µM.

Turning to `CCN(Cc1ccc(C)cc1)c1cc(C(=O)N2CCC[C@H]2CN2CCCC2)c2cc(-c3ccc4c(c3)OCO4)ccc2n1` [Compound 405], the IC50 was less than 1 µM.

With `O=C(c1cc(CCCc2ccc(Cl)cc2)nc2ccc(-c3ccc4c(c3)OCO4)cc12)N1CCC[C@H]1CN1CCCC1` [Compound 406], the IC50 was less than 1 µM.

Take `O=C(c1cc(CCCCc2ccc(Cl)cc2)nc2ccc(-c3ccc4c(c3)OCO4)cc12)N1CCC[C@H]1CN1CCCC1` [Compound 407]: the IC50 was less than 1 µM.

On to `C[Si](C)(C)CCc1cc(C(=O)N2CCC[C@H]2CN2CCCC2)c2cc(-c3ccc4c(c3)OCO4)ccc2n1` [Compound 408], for which the IC50 is greater than 10 µM.

Consider `COc1ccc(CCc2cc(C(=O)N3CCC[C@H]3CN3CCCC3)c3cc(-c4ccc5c(c4)OCO5)ccc3n2)cc1` [Compound 409], for which the half-maximal inhibitory concentration (IC50) was greater than 10 µM.

With `O=C(c1cc(CCc2cccc(C(F)(F)F)c2)nc2ccc(-c3ccc4c(c3)OCO4)cc12)N1CCC[C@H]1CN1CCCC1` [Compound 410], the IC50 was less than 1 µM.

On to `O=C(c1cc(NCc2ccc(C(F)(F)F)cc2)nc2ccc(-c3ccc4c(c3)OCO4)cc12)N1CC=C[C@H]1CN1CCCC1` [Compound 411], for which the IC50 was less than 1 µM.

Take `CN(C)c1ccc(Nc2cc(/C=C/c3ccc(F)cc3)nc3ccc(-c4ccc5c(c4)OCO5)cc23)cc1` [Compound 412]: the IC50 was greater than 10 µM.

As to `Fc1ccc(/C=C/c2cc(Nc3ccc(N4CCNCC4)cc3)c3cc(-c4ccc5c(c4)OCO5)ccc3n2)cc1` [Compound 413], the IC50 is 1 to 10 µM.

Turning to `Fc1ccc(CCc2cc(Nc3ccc(N4CCNCC4)cc3)c3cc(-c4ccc5c(c4)OCO5)ccc3n2)cc1` [Compound 414], the IC50 was greater than 10 µM.
